System: β-catenin-TCF-mediated reporter transcription activity in Colo 205 cells
Assay: Colo 205 reporter assay (TCF/LEF luciferase)
Type: cell-based
Conditions: Homo sapiens, COLO 205, 5 h, Colo 205 TCF/LEF luciferase reporter, five hours after addition of compound; read-out: TCF reporter Colo205 IC50
In short: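 Luciferase signal from a TCF/LEF-driven reporter, stably integrated in Colo 205 colon cancer cells, was measured 5 h after compound addition.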

Structure (SMILES) | IC50 [nM]
CN1C(=O)C(C)(C)N(C)c2nc(NCc3cnn(Cc4cnccc4C(F)(F)F)c3)ncc21 [Compound 236, 5,7,7,8-Tetramethyl-2-(((1-((4-(trifluoromethyl)pyridin-3-yl)methyl)-1H-pyrazol-4-yl)methyl)amino)-7,8-dihydropteridin-6(5H)-one] | < 300
Cc1nc(NCc2cnn(Cc3ccc(C(F)(F)F)nc3)c2)nc2c1NC(=O)C(C)(C)N2C [Compound 238, 4,7,7,8-Tetramethyl-2-(((1-((6-(trifluoromethyl)pyridin-3-yl)methyl)-1H-pyrazol-4-yl)methyl)amino)-7,8-dihydropteridin-6(5H)-one] | < 300
Cc1nc(NCc2cnn(Cc3ccc(C(F)(F)F)nc3)c2)nc2c1NC(=O)C1(CC1)N2C [Compound 239, 4′,8′-dimethyl-2′-(((1-((6-(trifluoromethyl)pyridin-3-yl)methyl)-1H-pyrazol-4-yl)methyl)amino)-5′,8′-dihydro-6′H-spiro[cyclopropane-1,7′-pteridin]-6′-one] | < 300
C[C@H]1C(=O)Nc2cnc(N[C@H]3C[C@H](Oc4ccc(F)cc4)C3)nc2N1C [Compound 240, (7S)-2-((trans-3-(4-fluorophenoxy)cyclobutyl)amino)-7,8-dimethyl-7,8-dihydropteridin-6(5H)-one] | 1000 to 5000
C[C@H]1C(=O)Nc2cnc(N[C@H]3C[C@@H](Oc4ccc(F)cc4)C3)nc2N1C [Compound 241, (7S)-2-((cis-3-(4-fluorophenoxy)cyclobutyl)amino)-7,8-dimethyl-7,8-dihydropteridin-6(5H)-one] | ≥ 5000
Cc1nc(N[C@H]2C[C@H](Oc3ccc(F)cc3)C2)nc2c1NC(=O)[C@H](C)N2C [Compound 242, (7S)-2-((trans 3-(4-fluorophenoxy)cyclobutyl)amino)-4,7,8-trimethyl-7,8-dihydropteridin-6(5H)-one] | < 300
Cc1nc(N[C@H]2C[C@@H](Oc3ccc(F)cc3)C2)nc2c1NC(=O)[C@H](C)N2C [Compound 243, (7S)-2-((cis-3-(4-fluorophenoxy)cyclobutyl)amino)-4,7,8-trimethyl-7,8-dihydropteridin-6(5H)-one] | 1000 to 5000
Cc1nc(NC2CN(Cc3ccccc3)C2)nc2c1NC(=O)[C@H](C)N2C [Compound 244, (7S)-2-((1-benzylazetidin-3-yl)amino)-4,7,8-trimethyl-7,8-dihydropteridin-6(5H)-one] | ≥ 5000
C[C@H]1C(=O)Nc2cnc(NC3CN(Cc4ccccc4)C3)nc2N1C [Compound 245, (7S)-2-((1-benzylazetidin-3-yl)amino)-7,8-dimethyl-7,8-dihydropteridin-6(5H)-one] | ≥ 5000
Cc1nc(N[C@H]2C[C@H](Oc3ccc(F)c(F)c3)C2)nc2c1NC(=O)[C@H](C)N2C [Compound 248, (7S)-2-((trans 3-(3,4-difluorophenoxy)cyclobutyl)amino)-4,7,8-trimethyl-7,8-dihydropteridin-6(5H)-one] | < 300
C[C@H]1C(=O)Nc2cnc(N[C@H]3C[C@H](Oc4cc(F)c(F)c(F)c4)C3)nc2N1C [Compound 249, (7S)-7,8-dimethyl-2-((trans-3-(3,4,5-trifluorophenoxy)cyclobutyl)amino)-7,8-dihydropteridin-6(5H)-one] | < 300
Cc1nc(N[C@H]2C[C@H](Oc3ccc(F)c(F)c3)C2)nc2c1N(C)C(=O)[C@H](C)N2C [Compound 252, (7S)-2-((trans-3-(3,4-difluorophenoxy)cyclobutyl)amino)-4,5,7,8-tetramethyl-7,8-dihydropteridin-6(5H)-one] | < 300
Cc1nc(N[C@H]2C[C@H](OCc3cc(F)c(F)c(F)c3)C2)nc2c1N(C)C(=O)[C@H](C)N2C [Compound 255, (7S)-4,5,7,8-tetramethyl-2-((trans-3-((3,4,5-trifluorobenzyl)oxy)cyclobutyl)amino)-7,8-dihydropteridin-6(5H)-one] | < 300
C[C@H]1C(=O)Nc2cnc(N[C@H]3C[C@H](OCc4cc(F)c(F)c(F)c4)C3)nc2N1C [Compound 256, (7S)-7,8-dimethyl-2-((trans-3-((3,4,5-trifluorobenzyl)oxy)cyclobutyl)amino)-7,8-dihydropteridin-6(5H)-one] | 300 to 1000
Cc1nc(N[C@H]2C[C@@H](COc3ccc(F)cc3)C2)nc2c1NC(=O)[C@H](C)N2C [Compound 261, (7S)-2-((cis-3-((4-fluorophenoxy)methyl)cyclobutyl)amino)-4,7,8-trimethyl-7,8-dihydropteridin-6(5H)-one] | < 300
Cc1nc(N[C@H]2C[C@H](Oc3cncc(F)c3)C2)nc2c1NC(=O)[C@H](C)N2C [Compound 262, (7S)-2-((trans-3-((5-fluoropyridin-3-yl)oxy)cyclobutyl)amino)-4,7,8-trimethyl-7,8-dihydropteridin-6(5H)-one] | 1000 to 5000
Cc1nc(N[C@H]2C[C@@H](COc3cncc(F)c3)C2)nc2c1NC(=O)[C@H](C)N2C [Compound 263, (7S)-2-((cis-3-(((5-fluoropyridin-3-yl)oxy)methyl)cyclobutyl)amino)-4,7,8-trimethyl-7,8-dihydropteridin-6(5H)-one] | 300 to 1000

Structure (SMILES) | IC50 [nM]
Cc1nc(N[C@H]2C[C@H](OCc3ccc(F)c(F)c3)C2)nc2c1NC(=O)[C@H](C)N2C [Compound 264, (7S)-2-((trans-3-((3,4-difluorobenzyl)oxy)cyclobutyl)amino)-4,7,8-trimethyl-7,8-dihydropteridin-6(5H)-one] | < 300
C[C@H]1C(=O)Nc2cnc(N[C@H]3C[C@H](OCc4ccc(F)c(F)c4)C3)nc2N1C [Compound 265, (7S)-2-((trans-3-((3,4-difluorobenzyl)oxy)cyclobutyl)amino)-7,8-dimethyl-7,8-dihydropteridin-6(5H)-one] | 300 to 1000
Cc1nc(N[C@H]2C[C@H](OCc3ccc(F)c(F)c3)C2)nc2c1N(C)C(=O)[C@H](C)N2C [Compound 266, (7S)-2-((trans-3-((3,4-difluorobenzyl)oxy)-cyclobutyl)amino)-4,5,7,8-tetramethyl-7,8-dihydropteridin-6(5H)-one] | 300 to 1000
Cc1nc(N[C@H]2C[C@@H](COc3ccc(F)nc3)C2)nc2c1NC(=O)[C@H](C)N2C [Compound 270, (7S)-2-((cis-3-(((6-fluoropyridin-3-yl)oxy)methyl)cyclobutyl)amino)-4,7,8-trimethyl-7,8-dihydropteridin-6(5H)-one] | 300 to 1000
Cc1nc(N[C@H]2C[C@@H](COc3ccc(F)c(F)c3)C2)nc2c1NC(=O)[C@H](C)N2C [Compound 271, (7S)-2-((cis-3-((3,4-difluorophenoxy)methyl)cyclobutyl)amino)-4,7,8-trimethyl-7,8-dihydropteridin-6(5H)-one] | < 300
Cc1nc(N[C@H]2CC[C@H](Oc3cc(F)c(F)c(F)c3)C2)nc2c1N(C)C(=O)[C@H](C)N2C [Compound 273, (S)-4,5,7,8-tetramethyl-2-(((1S,3S)-3-(3,4,5-trifluorophenoxy)cyclopentyl)amino)-7,8-dihydropteridin-6(5H)-one] | < 300
Cc1nc(N[C@H]2C[C@H](Oc3ncc(F)cn3)C2)nc2c1N(C)C(=O)[C@H](C)N2C [Compound 274, (S)-2-((trans-3-((5-fluoropyrimidin-2-yl)oxy)cyclobutyl)amino)-4,5,7,8-tetramethyl-7,8-dihydropteridin-6(5H)-one] | ≥ 5000
Cc1nc(N[C@H]2C[C@H](Oc3ncc(F)cn3)C2)nc2c1NC(=O)[C@H](C)N2C [Compound 276, (7S)-2-((trans-3-((5-fluoropyrimidin-2-yl)oxy)cyclobutyl)amino)-4,7,8-trimethyl-7,8-dihydropteridin-6(5H)-one] | ≥ 5000
Cc1nc(N[C@H]2C[C@@H](COc3ccc(F)cc3C#N)C2)nc2c1NC(=O)[C@H](C)N2C [Compound 277, 5-fluoro-2-((cis-3-(((7S)-4,7,8-trimethyl-6-oxo-5,6,7,8-tetrahydropteridin-2-yl)amino)cyclobutyl)methoxy)benzonitrile] | < 300
Cc1nc(NC2CC2COc2ccccc2)nc2c1NC(=O)[C@H](C)N2C (stereo partly drawn) [Compound 278, (7S)-4,7,8-trimethyl-2-((2-(phenoxymethyl)cyclopropyl)-amino)-7,8-dihydropteridin-6(5H)-one] | 1000 to 5000
Cc1nc(N[C@H]2C[C@@H](Cn3cc(F)cn3)C2)nc2c1NC(=O)[C@H](C)N2C [Compound 279, (7S)-2-((cis-3-((4-fluoro-1H-pyrazol-1-yl)methyl)cyclobutyl)amino)-4,7,8-trimethyl-7,8-dihydropteridin-6(5H)-one] | 300 to 1000
COc1cc(OC[C@H]2C[C@@H](Nc3nc(C)c4c(n3)N(C)[C@@H](C)C(=O)N4)C2)cc(OC)c1OC [Compound 280, (7S)-4,7,8-trimethyl-2-((cis-3-((3,4,5-trimethoxyphenoxy)methyl)-cyclobutyl)amino)-7,8-dihydropteridin-6(5H)-one] | < 300
Cc1nc(N[C@H]2C[C@@H](COc3ccc(F)c(F)c3F)C2)nc2c1NC(=O)[C@H](C)N2C [Compound 281, (7S)-4,7,8-trimethyl-2-((cis-3-((2,3,4-trifluorophenoxy)methyl)cyclobutyl)-amino)-7,8-dihydropteridin-6(5H)-one] | < 300
Cc1nc(N[C@H]2C[C@@H](COc3ccc(F)cc3Cl)C2)nc2c1NC(=O)[C@H](C)N2C [Compound 282, (7S)-2-((cis-3-((2-chloro-4-fluorophenoxy)methyl)cyclobutyl)amino)-4,7,8-trimethyl-7,8-dihydropteridin-6(5H)-one] | < 300
C#Cc1cccc(OC[C@H]2C[C@@H](Nc3nc(C)c4c(n3)N(C)[C@@H](C)C(=O)N4)C2)c1 [Compound 283, (7S)-2-((cis-3-((3-ethynylphenoxy)methyl)cyclobutyl)amino)-4,7,8-trimethyl-7,8-dihydropteridin-6(5H)-one] | < 300
COc1c(F)cc(OC[C@H]2C[C@@H](Nc3nc(C)c4c(n3)N(C)[C@@H](C)C(=O)N4)C2)cc1F [Compound 284, (7S)-2-((cis-3-((3,5-difluoro-4-methoxyphenoxy)methyl)cyclobutyl)amino)-4,7,8-trimethyl-7,8-dihydropteridin-6(5H)-one] | < 300

— patent publication US20230312587A1, “PTERIDINONE COMPOUNDS AND USES THEREOF” (Vertex Pharmaceutical Incorporated, priority 2018, published 2023)
